The text below walks through data of patent US5298521A, “1,5-diphenyl-3-pyrazolylalkyl-N-hydroxydithiocaramates, compositions and use” (Ortho Pharmaceutical Corporation, priority 1993, dated 1994).

Experiment [1] deals with T1, RBL-1 cell cyclooxygenase (Rattus norvegicus, UniProt Q63921).
T1 construct: the supernatant was saved as the source of enzymes; endogenous in cells; host or cells: RBL-1 rat basophilic leukemia cells, homogenate supernatant
T1 sequence (Q63921 27-602): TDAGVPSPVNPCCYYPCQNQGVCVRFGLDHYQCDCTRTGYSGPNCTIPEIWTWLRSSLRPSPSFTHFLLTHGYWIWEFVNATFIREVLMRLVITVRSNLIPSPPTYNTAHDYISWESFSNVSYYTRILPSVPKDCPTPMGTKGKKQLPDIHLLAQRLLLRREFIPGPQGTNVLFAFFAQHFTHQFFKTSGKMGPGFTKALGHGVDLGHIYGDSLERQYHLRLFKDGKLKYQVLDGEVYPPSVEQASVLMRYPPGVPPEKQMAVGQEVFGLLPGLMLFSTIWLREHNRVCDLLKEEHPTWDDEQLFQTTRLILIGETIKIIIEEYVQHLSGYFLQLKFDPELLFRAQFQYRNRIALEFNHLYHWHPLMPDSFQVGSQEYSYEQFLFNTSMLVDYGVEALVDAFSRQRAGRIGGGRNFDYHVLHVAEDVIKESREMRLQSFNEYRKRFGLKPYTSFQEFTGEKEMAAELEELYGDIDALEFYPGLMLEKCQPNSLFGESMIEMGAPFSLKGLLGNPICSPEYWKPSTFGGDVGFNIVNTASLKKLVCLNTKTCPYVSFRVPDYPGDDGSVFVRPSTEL
Put plainly: RBL-1 cell cyclooxygenase, cell homogenate supernatant (Procedure II). Format: biochemical. The settings on record: RBL-1 homogenate, 3 μM; read-out: PROC. II % INHIBITION CO. The protocol: (§1) RBL-1 cell 5-lipoxygenase and cyclooxygenase
(§2) Rat basophilic leukemia cells (RBL-1; 5×10^7 viable cells/mL) were disrupted by homogenization on ice (four 20 sec bursts) with a Brinkman polytron. Complete cell breakage was verified microscopically. The homogenate was then centrifuged at 10,000×g for 48 minutes at 4° C. The pellet was discarded and the supernatant was saved as the source of enzymes. The supernatant was pre-incubated for five minutes at 37° C. in the presence of 2 mM of CaCl2 and compound or vehicle (1% DMSO). The conversion of AA into 5-LO products was initiated by adding 10 μL (50 μCi) of 1-^14 C-AA to each tube and incubated at 37° C. for 20 minutes. The reaction was stopped by adjusting the pH of each sample to 3 to 3.5 with 2M formic acid. Samples were extracted with three volumes of chloroform to isolate the products of 5-LO formed during the reaction. Fractions were dried under nitrogen, then resuspended in 40 μL of chloroform and spotted onto silica gel HL plates. The plates were developed in A-9 solvent. The dried plates were analyzed using a Bioscan Imaging TLC scanner to determine the percentage of radiolabelled AA converted to 5-HETE in each sample.

The target of experiment [2] is T2, RBL-1 cell 5-lipoxygenase (Rattus norvegicus, UniProt P12527).
T2 construct: the supernatant was saved as the source of enzymes; endogenous in cells; host or cells: RBL-1 rat basophilic leukemia cells, homogenate supernatant
T2 sequence (P12527 1-673): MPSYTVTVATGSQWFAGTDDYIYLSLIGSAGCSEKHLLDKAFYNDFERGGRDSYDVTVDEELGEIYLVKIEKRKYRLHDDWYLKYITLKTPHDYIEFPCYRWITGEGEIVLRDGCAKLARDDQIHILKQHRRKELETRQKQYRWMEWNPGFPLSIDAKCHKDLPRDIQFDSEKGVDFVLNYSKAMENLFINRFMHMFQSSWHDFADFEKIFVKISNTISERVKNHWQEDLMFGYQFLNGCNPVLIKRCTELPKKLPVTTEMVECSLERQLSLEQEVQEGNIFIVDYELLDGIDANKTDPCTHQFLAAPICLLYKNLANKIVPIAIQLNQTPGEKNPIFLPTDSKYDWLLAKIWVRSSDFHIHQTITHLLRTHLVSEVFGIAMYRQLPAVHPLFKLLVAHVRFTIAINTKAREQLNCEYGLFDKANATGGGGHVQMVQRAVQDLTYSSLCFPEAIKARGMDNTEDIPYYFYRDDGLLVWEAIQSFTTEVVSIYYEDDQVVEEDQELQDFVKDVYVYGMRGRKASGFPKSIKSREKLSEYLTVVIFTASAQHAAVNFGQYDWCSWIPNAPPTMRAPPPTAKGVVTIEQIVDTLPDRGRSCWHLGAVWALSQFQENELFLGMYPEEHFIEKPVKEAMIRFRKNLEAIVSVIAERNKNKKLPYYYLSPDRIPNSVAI
The experiment in a line: RBL-1 cell 5-lipoxygenase, cell homogenate supernatant (Procedure II). Format: biochemical. The settings on record: RBL-1 homogenate, 3 μM; read-out: PROC. II % INHIBITION 5-LO. The procedure: as §1, §2

The next experiment deals with CO in intact RBL-1 cells. Put plainly: CO inhibition in intact RBL-1 cells (Procedure III). Format: cell-based, rat. As to conditions: superscript = number of experiments, read-out: PROC. III IC50 CO. The protocol: (§3) The ability to inhibit 5-LO and CO in intact RBL-1 cells was also evaluated. RBL-1 cells were maintained in culture in minimal essential medium (Bio*Whittaker, Walkersville, MD), containing 12.5% fetal calf serum, 10 mg/mL streptomycin, 10 I.U./mL penicillin G, […] gentamycin and 2 mM L-glutamine (Bio*Whittaker, Walkersville, MD). Cells were collected by centrifugation, washed once in HBSS, and resuspended at a concentration of 1×10^5 cells/mL. Cells were incubated in the presence of vehicle or drug then centrifuged at 800×g for 10 minutes at 4° C. The supernatant was removed by aspiration and the cells were resuspended in 0.5 mL of HBSS. The reaction was started by the addition of 20 μg/mL of calcium ionophore A-23187 (mixed calcium and magnesium salts, Calbiochem, La Jolla CA) and allowed to proceed for 15 minutes, then stopped by plunging the tubes into a slush ice bath. The conversion of AA to 5-LO products was initiated by the addition of 10 μL (50 uCi) of 1-^14 C-AA. Products were isolated by acidification and extraction, followed by thin layer chromatography analysis as described above. Radioactive areas corresponding to authentic 5-LO and CO products were quantitated by the Bioscan 2000 Imaging System.

Experiment [3] concerns the target T3, 5-LO in intact RBL-1 cells (Rattus norvegicus, UniProt P12527).
T3 construct: endogenous in cells; host or cells: intact RBL-1 cells
T3 sequence (P12527 1-673): T2 sequence (P12527 1-673)
The experiment in a line: 5-LO inhibition in intact RBL-1 cells (Procedure III). Format: cell-based. The settings on record: read-out: PROC. III IC50 5-LO. The protocol: as §3

For experiment [4], the target named is T4, Sheep seminal vesicle cyclooxygenase (Ovis aries, UniProt P05979).
T4 construct: Sheep seminal vesicle (SSV) cyclooxygenase (95% pure); purchased Biomol (Plymouth Meeting, Pa.); host or cells: sheep seminal vesicle
T4 sequence (P05979 25-600): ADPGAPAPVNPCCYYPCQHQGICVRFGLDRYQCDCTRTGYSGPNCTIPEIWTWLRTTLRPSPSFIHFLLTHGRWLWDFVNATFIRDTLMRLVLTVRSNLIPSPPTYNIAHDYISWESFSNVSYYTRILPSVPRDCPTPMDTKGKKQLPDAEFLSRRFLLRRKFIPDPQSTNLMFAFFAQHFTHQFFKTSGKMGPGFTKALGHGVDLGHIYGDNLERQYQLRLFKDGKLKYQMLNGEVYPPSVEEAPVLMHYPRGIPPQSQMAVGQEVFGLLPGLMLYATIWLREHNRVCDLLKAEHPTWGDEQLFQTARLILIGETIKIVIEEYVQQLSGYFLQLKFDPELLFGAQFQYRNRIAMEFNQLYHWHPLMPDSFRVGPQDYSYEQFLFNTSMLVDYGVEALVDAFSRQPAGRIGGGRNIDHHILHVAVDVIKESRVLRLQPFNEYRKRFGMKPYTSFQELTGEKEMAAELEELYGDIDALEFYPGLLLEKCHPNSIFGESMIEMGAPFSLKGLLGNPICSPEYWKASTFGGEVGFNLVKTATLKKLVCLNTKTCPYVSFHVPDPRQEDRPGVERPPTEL
Put plainly: Sheep seminal vesicle cyclooxygenase (Procedure I). Format: biochemical. The settings on record: read-out: PROC. I % INHIB CO. The procedure: Sheep seminal vesicle cyclooxygenase Sheep seminal vesicle (SSV) cyclooxygenase (95% pure, prostaglandin endoperoxide synthase, EC 1.14.99.1 specific activity 24 units/mg protein) obtained as a lyophilized powder from Biomol (Plymouth Meeting, Pa.) was reconstituted at a concentration of 59 mg/mL in Hanks' Balanced Salt Solution (HBSS). The enzyme was divided into 200 μL aliquots, snap frozen with liquid N2, and stored at -70° C. unitl immediately prior to use. Measurements of CO activity were carried out in polypropylene tubes containing 495 μL of HBSS to which was added 5 μL of inhibitor or dimethylsulfoxide (DMSO; vehicle control) and 6 μL of SSV CO solution. The tubes were mixed on a vortex shaker, preincubated for 5 min at 37° C. prior to the initiation of the reaction. The reaction was started by the addition of [^14 C]-arachidonic acid (1-^14 C-AA, Amersham, Arlington Heights, Il) in 10 μL of methanol. Tubes were again vortexed and incubated in a water bath for 20 minutes after which the tubes were removed and the reaction stopped by acidification with the addition of 1 mL 2M formic acid. Lipophilic products were extracted with 3 mL chloroform and concentrated to dryness under N2. Each pellet was reconstituted with 40 μL of chloroform and spotted on a Whatman Silicon thin-layer chromatography plate and developed in a chromatography tank containing A-9 solvent (11:5:2:1 V:V:V:V, ethyl acetate:trimethylpentane:acetic acid:double distilled-H2 O). Radioactive cyclooxygenase products (prostaglandin D2, prostaglandin E2, etc.) were measured using a Bioscan System 200 Imaging Scanner. Inhibition of enzyme activity was calculated by comparing the areas under the curve produced in the presence or absence of test compound.

As a reminder, the IC50 is the point on the concentration scale where inhibition reaches its midpoint. Turning to `COc1ccc(-n2nc(CSC(=S)N(C)O)cc2-c2ccc(Cl)cc2)cc1` [1-A, 5-(4-chlorophenyl)-1-(4-methoxyphenyl)-3-pyrazolylmethyl-N-hydroxy-N-methyl dithiocarbamate], the values for the inhibition at 3 µM in experiment [1] and in experiment [2] were 100% and 85%, respectively. The IC50 in the experiment on CO in intact RBL-1 cells came out at 230 nM; in experiment [3], 2500 nM.
The matching figures for `COc1ccc(-n2nc(CSC(=S)N(C)O)cc2-c2ccc(C)cc2)cc1` [1-F]: 100%, 83%, 60 nM and 2400 nM.
`COc1ccc(-n2nc(CSC(=S)N(O)C(C)C)c(Cl)c2-c2ccc(C)cc2)cc1` [1-I]: the inhibition at 3 µM in experiment [4] was 0%; in experiment [1], 0%; in experiment [2] it was 82%.
As to `COc1ccc(-n2nc(CSC(=S)N(C)O)c(Br)c2-c2ccc(C)cc2)cc1` [1-J], the results for the inhibition at 3 µM in experiment [4], in experiment [1] and in experiment [2] were 36%, 52% and 83%, respectively.
On to `COc1ccc(-n2nc(CSC(=S)N(O)C(C)C)c(Br)c2-c2ccc(C)cc2)cc1` [1-K], for which the inhibition at 3 µM was found to be 0% in experiment [4], 0% in experiment [1] and 87% in experiment [2].
